Measured values reported in patent US11110195B2, “Esculentin 1a derivatives and uses thereof” (University of Houston System, priority 2013, dated 2021).
Residues, ends and D or L forms follow the SMILES beside them.

Key:
[1] = test system: A. castellani (ATCC 50370) trophozoites; assay: Acanthamoeba viability, ethidium homodimer-1 time lapse microscopy; assay type: cell-based, Acanthamoeba castellani
Method: FIGS. 8A-8D show the effect of Esc-1a(1-21)NH2 on the viability of Acanthamoeba castellani. The amoeba were seeded in to chamber slides, then a fluorescent viability dye (ethidium homodimer-1) and 500 μg/ml Esc-1a(1-21)NH2 added. The amoebas were viewed by time lapse microscopy in an environmental chamber for 6 hours. Images are from before peptide addition at time zero in healthy trophozoites (FIG. 8A), then 10 minutes (FIG. 8B), 2 hours (FIG. 8C) and 6 hours (FIG. 8D) post addition of peptide Esc-1a(1-21)NH2. […] Significant amounts of debris accumulated over time indicating rupture of the cells.
1×10^4 A. castellani (ATCC 50370) trophozoites in PYG 712 growth medium were transferred to coverglass chamber slides and allowed to attach overnight. The cells were then incubated with PYG 712 medium containing a 1:100 dilution of ethidium homodimer-1 (EthD-1) for 15 minutes at room temperature. EthD-1 is a cell-impermeant viability indicator dye that is taken up by cells with a compromised plasma membrane and fluoresces red/orange when bound to DNA. Serial brightfield and fluorescence images were taken using a DeltaVision Spectris Core fluorescence microscope every 3 minutes for 30 minutes to visualize cellular health prior to addition of Esc-1a(1-21)NH2. The medium was then replaced with 200 μl growth media containing 125, 250 or 500 μg/ml Esc-1a(1-21)NH2 and 1:100 diluted ethidium homodimer-1. Brightfield and fluorescence images were taken every 3 minutes for another 6 hours. Serial images were compiled together using Softworx software (Applied Precision) to generate time-lapse videos.

[2] = MTT viability assay, A549 cells; conditions: human
Method: Cell viability is expressed as percentage with respect to the control (cells not treated with the peptides). Data points represent the mean of triplicate samples ±SEM. […] The levels of statistical significance between the two peptides are indicated as follows: **p<0.01, ***p<0.001.
Cells were plated in wells of a microtiter plate, at 4×10^4 cells/well in DMEM supplemented with 2 mM glutamine and 2% FBS (for A549 cells) or DMEM containing 2 mM glutamine, non-essential amino acids (NEAA), sodium pyruvate and 2% FBS (for Raw 264.7 macrophages). After overnight incubation at 37° C. in a 5% CO2 atmosphere, the medium was replaced with 100 μl fresh serum-free medium supplemented with the peptides at different concentrations. After 24 h of peptide treatment, cell viability was determined by a MTT assay.

[3] = in vitro; conditions: for Peptide Amount (%): 24 h, 37° C.; for remaining at 5 h, 0.575 mM / remaining at 24 h, 0.575 mM: human
Method: A total of 125 μl of a 0.92 mM solution of each peptide was incubated at 37° C. with 20 μl and 60 μl human serum. Samples were collected after 5 h and 24 h of incubation, precipitated with 200 μl methanol, and centrifuged for 2 min at 10,000 g.
The crude solution was then analyzed by high-performance liquid chromatography (HPLC) and mass spectrometry. HPLC was performed with a Vydac C18 column, and the crude solution was diluted 5 times with 0.1% trifluoroacetic acid before injection and monitored at 280 nm.

[4] = test system: Pseudomonas aeruginosa ATCC 19660 induced keratitis; assay: Neutrophil infiltration into cornea by myeloperoxidase (MPO) assay; assay type: in vivo, C57BL/6 mice
From the text: Corneas were harvested 1,3 and 5 days after infection and neutrophil infiltration determined by MPO assay. […] PI=post infection, Pre-trt=pretreatment with Esc-1a(1-21)NH2. *Indicates significant difference, p<0.05, among PBS control and peptide treated groups.
To determine a clinical score, neutrophil infiltration by myeloperoxidase assay (MPO assay) and viable bacterial cell counts in infected and control corneas of C57BL/6 mice with Pseudomonas aeruginosa ATCC 19660 keratitis following pre-treatment and post-infection treatment with Esc-1a(1-21)NH2 up to 5 days post-infection (PI) the following experiment was performed. In these experiments pre-treatment refers to a group of animals where treatment was initiated 24 hrs before infection then continued after infection.
An MPO assay was used to quantitate polymorphonuclear cell numbers in the cornea from both infected corneas (n=2/group/time point) of Esc-1a(1-21)NH2 treated and control (PBS) treated animals. Briefly, corneas were harvested at days 1, 3 and 5 PI. The change in absorbance at 450 nm was monitored for one hour at 15-30 minute intervals. The results were expressed as units of MPO per cornea. One unit of MPO activity is equivalent to 2*10^5 polymorphonuclear cells.
Harvested and pooled corneas (2 mice/group) in 200 μl of sterile PBS/cornea. Placed the harvested corneas on ice until further processing. Homogenized the corneas for 30-45 seconds and briefly sonicated them for 10-20 seconds.
C. Added 10 μl of 0.5% HTAB (hexadecyltrimethylammonium bromide in potassium phosphate buffer 50 mM pH 6) to 90 μl homogenate (*stored the remaining homogenate on ice to obtain recoverable P. aeruginosa counts for viability assay).
D. Sonicated samples 2×5 seconds then freeze thawed three times on liquid nitrogen.
E. Centrifuged at 14000*g at 4° C. for 20 minutes.
F. To 10 ml of phosphate buffer added 0.00167 g 0-dianisidine dihydrochloride and 1.67 μl (0.05%) H2O2. 90 μl of this was added to each well to produce the color reaction (protected the solution from light).
G. Made up standards for MPO using phosphate buffer based on the initial concentration of the MPO. Double diluted 25 μl MPO standard & carry 25 μl over since 10 μl was needed per well (run in duplicate).
H. Added 10 μl of each standard to 96 well plate and 10 μl sample supernatant (in triplicate).
I. Added 90 μl phosphate buffer containing O-d-d and H2O2 to the plate. Popped bubbles and read on spectrophotometer at 450 nm at 3 minutes, 5 minutes, 10 minutes, 15 minutes, 30 minutes, 45 minutes and 60 minutes.
The MPO units per cornea were determined and the mean from 3 independent experiments was plotted (FIG. 6).

CC[C@H](C)[C@H](NC(=O)CN)C(=O)N[C@@H](Cc1ccccc1)C(=O)N[C@@H](CO)C(=O)N[C@@H](CCCCN)C(=O)N[C@@H](CC(C)C)C(=O)N[C@@H](C)C(=O)NCC(=O)N[C@@H](CCCCN)C(=O)N[C@@H](CCCCN)C(=O)N[C@H](C(=O)N[C@@H](CCCCN)C(=O)N[C@@H](CC(N)=O)C(=O)N[C@@H](CC(C)C)C(=O)N[C@@H](CC(C)C)C(=O)N[C@H](C(=O)N[C@@H](CO)C(=O)NCC(=O)N[C@@H](CC(C)C)C(=O)N[C@@H](CCCCN)C(=O)NCC(N)=O)[C@@H](C)CC)[C@@H](C)CC [Esc-1a(1-21)NH2] (H-GIFSKLAGKKIKNLLISGLKG-NH2; N-terminus assumed)
trophozoites stained positively with EthD-1 ([1]; 125 μg/ml, 6 hours): approximately 67% | trophozoites stained positively with EthD-1 ([1]; 250 μg/ml, 10 minutes): approximately 82% | trophozoites stained positively with EthD-1 ([1]; 250 μg/ml, 6 hours): ~100% | time until orange/red fluorescence (dead/dying cells) detected ([1]; 500 μg/ml): ≤ 10 min | CC50 at 24 h [2]: 150 µM | Peptide Amount (%) ([3]; 10% human fresh serum): approximately 22.19% | Peptide Amount (%) ([3]; 30% human fresh serum): ~11.5% | remaining at 5 h, 0.575 mM ([3]; 10% human fresh serum): 44.4% | remaining at 24 h, 0.575 mM ([3]; 10% human fresh serum): 22.2% | remaining at 5 h, 0.575 mM ([3]; 30% human fresh serum): 20.9% | remaining at 24 h, 0.575 mM ([3]; 30% human fresh serum): 11.5% | normalized MPO activity per cornea ([4]; pre-treated, day 1 PI): 1.55±0.4 MPO units | normalized MPO activity per cornea ([4]; pre-treated, day 3 PI): 1.66±0.13 MPO units | normalized MPO activity per cornea ([4]; pre-treated, day 5 PI): 1.55±0.28 MPO units | normalized MPO activity per cornea ([4]; treated after infection, day 1 PI): 1.69±0.40 MPO units | normalized MPO activity per cornea ([4]; treated after infection, day 3 PI): 1.84±0.16 MPO units | normalized MPO activity per cornea ([4]; treated after infection, day 5 PI): 1.82±0.42 MPO units
